From patent publication US6313114A, “3,4-Dihydro-2H-benzo[1,4]oxazinyl-methyl)-[3-(1H-indol-3yl)-alkyl]- amines” (American Home Products Corp, priority 1999, dated 2001)

How the values were obtained:
[1] = molecular target: T1, human 5-HT1A receptor (Homo sapiens, UniProt P08908); assay: [3H]8-OH-DPAT competition binding to cloned human 5-HT1A receptor (CHO cell membranes); details: [3H]8-OH-DPAT 1.5 nM; CHO cells expressing human 5-HT1A
T1 construct: expressed in transfected cells
T1 sequence (P08908 1-422): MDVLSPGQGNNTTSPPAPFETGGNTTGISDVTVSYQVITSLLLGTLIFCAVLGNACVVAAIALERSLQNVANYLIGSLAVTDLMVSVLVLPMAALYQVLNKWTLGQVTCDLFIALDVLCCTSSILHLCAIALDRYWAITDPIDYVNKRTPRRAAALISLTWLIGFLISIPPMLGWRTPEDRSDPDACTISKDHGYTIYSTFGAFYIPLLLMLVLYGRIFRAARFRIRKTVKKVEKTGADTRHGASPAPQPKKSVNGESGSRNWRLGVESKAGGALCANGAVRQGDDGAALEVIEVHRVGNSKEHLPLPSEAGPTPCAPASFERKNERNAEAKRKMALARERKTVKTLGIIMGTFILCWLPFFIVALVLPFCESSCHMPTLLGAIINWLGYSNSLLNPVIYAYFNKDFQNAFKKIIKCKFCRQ
Description: A stable Chinese hamster ovary cell line expressing the human 5-HT1A receptor subtype (5H-HT1A .CHO cells) was employed throughout this procedure. Cells were maintained in DMEM supplemented with 10% fetal calf serum, non-essential amino acids and penicillin/ streptomycin.
Cells were grown to 95-100% confluency as a monolayer before membranes were harvested for binding studies. Cells were gently scraped from the culture plates, transferred to centrifuge tubes, and washed twice by centrifugation (at 2000 rpm for 10 min., 4° C.) in buffer (50 mM Tris; pH 7.5). The resulting pellets were aliquoted and stored at -80° C. until needed. On the day of assay, the cells were thawed on ice, and resuspended in buffer. Studies were conducted using [^3 H]8-OH-DPAT as the radioligand. The binding assay was performed in 96 well microtiter plates in a final total volume of 250 μL of buffer. […] Non-specific binding was determined in the presence of 10 μM 5HT. Saturation analysis was conducted by using [^3 H]8-OH-DPAT at concentrations ranging from 0.3-30 nM. Following a 30 minute incubation at room temperature, the reaction was terminated by the addition of ice cold buffer and rapid filtration using a M-96 Brandel Cell Harvester through a GF/B filter presoaked for 30 minutes in 0.5% polyethyleneimine.

[2] = molecular target: T2, serotonin transporter (Rattus norvegicus, UniProt P31652); assay: 3H-paroxetine binding to serotonin transporter in rat frontal cortical membranes; parameters: species or system male Sprague-Dawley rats
T2 construct: frontal cortical membranes prepared from male Sprague-Dawley rats; from tissue; host or cells: frontal cortical membranes of male Sprague-Dawley rats
T2 sequence (P31652 whole entry): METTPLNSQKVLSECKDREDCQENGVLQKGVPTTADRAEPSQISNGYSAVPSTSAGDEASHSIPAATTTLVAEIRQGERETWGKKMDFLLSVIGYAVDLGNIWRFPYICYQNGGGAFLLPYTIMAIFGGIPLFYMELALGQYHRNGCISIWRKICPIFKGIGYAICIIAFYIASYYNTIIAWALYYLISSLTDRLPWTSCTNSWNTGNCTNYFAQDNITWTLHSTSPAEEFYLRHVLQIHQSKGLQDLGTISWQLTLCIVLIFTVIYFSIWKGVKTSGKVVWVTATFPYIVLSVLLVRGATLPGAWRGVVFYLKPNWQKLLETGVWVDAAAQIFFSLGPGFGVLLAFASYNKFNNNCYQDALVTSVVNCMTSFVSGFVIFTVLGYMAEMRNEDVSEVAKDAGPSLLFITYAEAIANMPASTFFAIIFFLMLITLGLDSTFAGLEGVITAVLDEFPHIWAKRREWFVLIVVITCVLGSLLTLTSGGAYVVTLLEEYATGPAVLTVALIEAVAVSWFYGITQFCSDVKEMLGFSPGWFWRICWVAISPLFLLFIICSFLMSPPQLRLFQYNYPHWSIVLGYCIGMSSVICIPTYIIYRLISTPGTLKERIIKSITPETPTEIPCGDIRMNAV
Description: Briefly, frontal cortical membranes prepared from male Sprague-Dawley rats were incubated with ^3 H-paroxetine (0.1 nM) for 60 min at 25° C. All tubes also contained either vehicle, test compound (one to eight concentrations), or a saturating concentration of fluoxetine (10 μM) to define specific binding. All reactions were terminated by the addition of ice cold Tris buffer followed by rapid filtration using a Tom Tech filtration device to separate bound from free ^3 H-paroxetine.

## c1ccc(CN2CC(CNCCCCc3c[nH]c4ccccc34)Oc3ccccc32)cc1 (centres unmarked) [Example 4, (4-Benzyl-3,4-dihydro-2H-benzo[1,4]oxazin-2ylmethyl)-[3-(1H-indo-3-yl)-butyl]-amine]
[1]
  Ki: 76.1 nM
[2]
  Ki: 81 nM
